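Interpolation was linear, between the two tested concentrations surrounding the appropriate level; five concentrations were tested over 48 hours in 96-well plates. TGI is the concentration that stops growth completely.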
Assays:
Experiment in all cases: NCI-60 cell line screen, 48 h
SR leukemia = tested on: SR leukemia
SN12C renal = tested on: SN12C renal
MOLT-4 leukemia = tested on: MOLT-4 leukemia
ACHN renal = tested on: ACHN renal
DU-145 prostate = tested on: DU-145 prostate
MDA-MB-231 breast = tested on: MDA-MB-231 breast
UACC-257 melanoma = tested on: UACC-257 melanoma
NCI-H522 lung = tested on: NCI-H522 lung
RXF 393 renal = tested on: RXF 393 renal
MDA-MB-435 = tested on: MDA-MB-435
KM12 colon = tested on: KM12 colon
HCT-116 colon = tested on: HCT-116 colon
CAKI-1 renal = tested on: CAKI-1 renal
LOX IMVI melanoma = tested on: LOX IMVI melanoma
COLO 205 colon = tested on: COLO 205 colon
T-47D breast = tested on: T-47D breast
OVCAR-8 ovarian = tested on: OVCAR-8 ovarian
A549 NSCLC = tested on: A549 NSCLC
SK-MEL-2 melanoma = tested on: SK-MEL-2 melanoma
SW-620 colon = tested on: SW-620 colon
OVCAR-5 ovarian = tested on: OVCAR-5 ovarian
UACC-62 melanoma = tested on: UACC-62 melanoma
A498 renal = tested on: A498 renal
HOP-62 NSCLC = tested on: HOP-62 NSCLC
SNB-75 CNS = tested on: SNB-75 CNS
IGROV1 ovarian = tested on: IGROV1 ovarian
U251 CNS = tested on: U251 CNS
UO-31 renal = tested on: UO-31 renal
NCI/ADR-RES ovarian = tested on: NCI/ADR-RES ovarian
SF-539 CNS = tested on: SF-539 CNS
786-0 renal = tested on: 786-0 renal
M14 melanoma = tested on: M14 melanoma
SNB-19 CNS = tested on: SNB-19 CNS
MALME-3M melanoma = tested on: MALME-3M melanoma
HCT-15 colon = tested on: HCT-15 colon
MDA-N = tested on: MDA-N
NCI-H460 lung = tested on: NCI-H460 lung
SF-268 CNS = tested on: SF-268 CNS
EKVX NSCLC = tested on: EKVX NSCLC
HCC-2998 colon = tested on: HCC-2998 colon
K-562 leukemia = tested on: K-562 leukemia
NCI-H23 lung = tested on: NCI-H23 lung
RPMI-8226 leukemia = tested on: RPMI-8226 leukemia
HL-60(TB) leukemia = tested on: HL-60(TB) leukemia
OVCAR-4 ovarian = tested on: OVCAR-4 ovarian
NCI-H226 lung = tested on: NCI-H226 lung
MCF7 breast = tested on: MCF7 breast
SK-MEL-28 melanoma = tested on: SK-MEL-28 melanoma
HOP-92 NSCLC = tested on: HOP-92 NSCLC
PC-3 prostate = tested on: PC-3 prostate
HT29 colon = tested on: HT29 colon
CCRF-CEM leukemia = tested on: CCRF-CEM leukemia
BT-549 breast = tested on: BT-549 breast
SF-295 CNS = tested on: SF-295 CNS
SK-MEL-5 melanoma = tested on: SK-MEL-5 melanoma
TK-10 renal = tested on: TK-10 renal
OVCAR-3 ovarian = tested on: OVCAR-3 ovarian
SK-OV-3 ovarian = tested on: SK-OV-3 ovarian

Measured: TGI

CC(CCC(=O)O)[C@H]1CCC2[C@H]3C(CC(=O)[C@@]21C)[C@@]1(C)CCC(O)C[C@H]1C[C@@H]3O (some centres not stated)
> 100 µM: SR leukemia | SN12C renal | MOLT-4 leukemia | ACHN renal | DU-145 prostate | MDA-MB-231 breast | UACC-257 melanoma | NCI-H522 lung | RXF 393 renal | MDA-MB-435 | KM12 colon | HCT-116 colon | CAKI-1 renal | LOX IMVI melanoma | COLO 205 colon | T-47D breast | OVCAR-8 ovarian | A549 NSCLC | SK-MEL-2 melanoma | SW-620 colon | OVCAR-5 ovarian | UACC-62 melanoma | A498 renal | HOP-62 NSCLC | SNB-75 CNS | IGROV1 ovarian | U251 CNS | UO-31 renal | NCI/ADR-RES ovarian | SF-539 CNS | 786-0 renal | M14 melanoma | SNB-19 CNS | MALME-3M melanoma | HCT-15 colon | MDA-N | NCI-H460 lung | SF-268 CNS | EKVX NSCLC | HCC-2998 colon | K-562 leukemia | NCI-H23 lung | RPMI-8226 leukemia | HL-60(TB) leukemia | OVCAR-4 ovarian | NCI-H226 lung | MCF7 breast | SK-MEL-28 melanoma | HOP-92 NSCLC | PC-3 prostate | HT29 colon | CCRF-CEM leukemia | BT-549 breast

O=C(NN1C(=O)c2ccccc2C1=O)c1ccccc1Nc1ccccc1C(=O)NN1C(=O)c2ccccc2C1=O
> 100 µM: SR leukemia | SN12C renal | MOLT-4 leukemia | SF-295 CNS | ACHN renal | DU-145 prostate | MDA-MB-231 breast | UACC-257 melanoma | SK-MEL-5 melanoma | NCI-H522 lung | RXF 393 renal | MDA-MB-435 | TK-10 renal | KM12 colon | HCT-116 colon | CAKI-1 renal | LOX IMVI melanoma | COLO 205 colon | OVCAR-8 ovarian | SK-MEL-2 melanoma | SW-620 colon | OVCAR-5 ovarian | UACC-62 melanoma | HOP-62 NSCLC | SNB-75 CNS | IGROV1 ovarian | U251 CNS | UO-31 renal | NCI/ADR-RES ovarian | SF-539 CNS | 786-0 renal | M14 melanoma | SNB-19 CNS | OVCAR-3 ovarian | MALME-3M melanoma | HCT-15 colon | MDA-N | NCI-H460 lung | SF-268 CNS | EKVX NSCLC | HCC-2998 colon | K-562 leukemia | NCI-H23 lung | RPMI-8226 leukemia | HL-60(TB) leukemia | OVCAR-4 ovarian | NCI-H226 lung | MCF7 breast | SK-MEL-28 melanoma | HOP-92 NSCLC | PC-3 prostate | HT29 colon | CCRF-CEM leukemia | BT-549 breast

CCCCc1ccc(N2C(=O)c3cccnc3S2(=O)=O)cc1
> 100 µM: SR leukemia | SN12C renal | MOLT-4 leukemia | SF-295 CNS | ACHN renal | DU-145 prostate | MDA-MB-231 breast | UACC-257 melanoma | NCI-H522 lung | RXF 393 renal | MDA-MB-435 | KM12 colon | HCT-116 colon | CAKI-1 renal | COLO 205 colon | T-47D breast | OVCAR-8 ovarian | A549 NSCLC | SK-MEL-2 melanoma | SW-620 colon | OVCAR-5 ovarian | UACC-62 melanoma | A498 renal | HOP-62 NSCLC | SNB-75 CNS | IGROV1 ovarian | U251 CNS | UO-31 renal | NCI/ADR-RES ovarian | SF-539 CNS | 786-0 renal | M14 melanoma | SNB-19 CNS | OVCAR-3 ovarian | MALME-3M melanoma | HCT-15 colon | MDA-N | NCI-H460 lung | SF-268 CNS | EKVX NSCLC | HCC-2998 colon | K-562 leukemia | NCI-H23 lung | RPMI-8226 leukemia | HL-60(TB) leukemia | OVCAR-4 ovarian | NCI-H226 lung | MCF7 breast | SK-MEL-28 melanoma | HOP-92 NSCLC | SK-OV-3 ovarian | PC-3 prostate | HT29 colon | CCRF-CEM leukemia | BT-549 breast

Source: PubChem BioAssay (NCI)
